Data from patent publication US20250276984A1, “SOLID STATE FORMS OF HER2 INHIBITORS” (Iambic Therapeutics, Inc., priority 2024, published 2025).
Values after ≈ are worked out from the molar mass of the structure shown.

Key:
[1] = Solubility estimated by solvent aliquot addition at ambient temperature; type: physicochemical; settings: thermodynamic from solid
From the text: Solubilities were estimated by solvent aliquot addition at ambient temperature and reported to the nearest whole number; if complete dissolution was achieved by one aliquot addition, the value is reported as “>”; if solids were present, the value is reported as “<”. The actual solubility may be larger than the value calculated because of the use of solvent aliquots that were too large or due to a slow rate of dissolution.

[2] = Dynamic vapor sorption (DVS); type: physicochemical; parameters: Hysteresis: unit not given here
Procedure: By DVS, a weight gain of 2.8 weight %, consistent with a gain of 0.9 mol water, was observed from 6% to 95% RH. A complete desorption was observed from 95% to 6% RH. No significant hysteresis was observed. The resulting crystalline material was analyzed by XRPD and shown to the Form A.

[3] = Cycle 1, target RH 95.0%, sample RH 95.4%

solubility ([1]; aqueous with cosolvent or surfactant or cyclodextrin, 10:90 dioxane/water v/v): < 1 mg/mL
solubility ([1]; aqueous with cosolvent or surfactant or cyclodextrin, 20:80 MeOH/water v/v): < 1 mg/mL
solubility ([1]; aqueous with cosolvent or surfactant or cyclodextrin, 35:65 THF/water v/v): 17 mg/mL (≈ 30.8 mM)
solubility ([1]; aqueous with cosolvent or surfactant or cyclodextrin, 50:50 ACN/water v/v): > 72 mg/mL
solubility ([1]; aqueous with cosolvent or surfactant or cyclodextrin, 50:50 DMAc/water v/v): 10 mg/mL (≈ 18.1 mM)
solubility ([1]; aqueous with cosolvent or surfactant or cyclodextrin, 50:50 MeOH/water v/v): 4 mg/mL (≈ 7.25 mM)
solubility ([1]; aqueous with cosolvent or surfactant or cyclodextrin, 50:50 THF/water v/v): > 31 mg/mL
solubility ([1]; aqueous with cosolvent or surfactant or cyclodextrin, 50:50 acetone/water v/v): 24 mg/mL (≈ 43.5 mM)
solubility ([1]; aqueous with cosolvent or surfactant or cyclodextrin, 50:50 dioxane/water v/v): 29 mg/mL (≈ 52.6 mM)
solubility ([1]; organic solvent or mixture, 2-MeTHF): 5 mg/mL (≈ 9.06 mM)
solubility ([1]; organic solvent or mixture, 10:90 chloroform/IPA v/v): 27 mg/mL (≈ 48.9 mM)
solubility ([1]; organic solvent or mixture, 20:80 MeOH/EtOAc v/v): > 51 mg/mL
solubility ([1]; organic solvent or mixture, 30:70 DCM/toluene v/v): 9 mg/mL (≈ 16.3 mM)
solubility ([1]; organic solvent or mixture, 30:70 DMAc/MTBE v/v): 29 mg/mL (≈ 52.6 mM)
solubility ([1]; organic solvent or mixture, 30:70 EtOH/toluene v/v): > 88 mg/mL
solubility ([1]; organic solvent or mixture, 50:50 DCM/toluene v/v): 50 mg/mL (≈ 90.6 mM)
solubility ([1]; organic solvent or mixture, 50:50 DMAc/toluene v/v): > 28 mg/mL
solubility ([1]; organic solvent or mixture, 50:50 EtOAc/IPA v/v): 17 mg/mL (≈ 30.8 mM)
solubility ([1]; organic solvent or mixture, 50:50 EtOAc/MIBK v/v): 4 mg/mL (≈ 7.25 mM)
solubility ([1]; organic solvent or mixture, 70:30 THF/heptane v/v): 10 mg/mL (≈ 18.1 mM)
solubility ([1]; organic solvent or mixture, ACN): 7 mg/mL (≈ 12.7 mM)
solubility ([1]; organic solvent or mixture, Acetone): 15 mg/mL (≈ 27.2 mM)
solubility ([1]; organic solvent or mixture, DCM): > 88 mg/mL
solubility ([1]; organic solvent or mixture, DMAc): > 110 mg/mL
solubility ([1]; organic solvent or mixture, EtOAc): 3 mg/mL (≈ 5.44 mM)
solubility ([1]; organic solvent or mixture, IPA): 3 mg/mL (≈ 5.44 mM)
solubility ([1]; organic solvent or mixture, MIBK): 3 mg/mL (≈ 5.44 mM)
solubility ([1]; organic solvent or mixture, MTBE): < 1 mg/mL
solubility ([1]; organic solvent or mixture, MeOH): > 116 mg/mL
solubility ([1]; organic solvent or mixture, THF): 38 mg/mL (≈ 68.9 mM)
solubility ([1]; organic solvent or mixture, chloroform): > 100 mg/mL
solubility ([1]; organic solvent or mixture, cyclohexane): < 1 mg/mL
solubility ([1]; organic solvent or mixture, dioxane): 32 mg/mL (≈ 58 mM)
solubility ([1]; organic solvent or mixture, heptane): < 2 mg/mL
solubility ([1]; organic solvent or mixture, toluene): < 1 mg/mL
solubility ([1]; water): < 1 mg/mL
Sorp Mass Change ([2]; Cycle 1, target RH 5.0%, sample RH 5.5%): 0.004%
Desorp Mass Change ([2]; Cycle 1, target RH 5.0%, sample RH 5.8%): −0.017%
Hysteresis ([2]; Cycle 1, target RH 15.0%): −0.006
Desorp Mass Change ([2]; Cycle 1, target RH 15.0%, sample RH 15.3%): 0.271%
Sorp Mass Change ([2]; Cycle 1, target RH 15.0%, sample RH 15.5%): 0.277%
Hysteresis ([2]; Cycle 1, target RH 25.0%): 0.039
Sorp Mass Change ([2]; Cycle 1, target RH 25.0%, sample RH 24.6%): 0.609%
Desorp Mass Change ([2]; Cycle 1, target RH 25.0%, sample RH 25.0%): 0.648%
Hysteresis ([2]; Cycle 1, target RH 35.0%): 0.075
Sorp Mass Change ([2]; Cycle 1, target RH 35.0%, sample RH 34.3%): 1.034%
Desorp Mass Change ([2]; Cycle 1, target RH 35.0%, sample RH 34.8%): 1.109%
Hysteresis ([2]; Cycle 1, target RH 45.0%): 0.104
Sorp Mass Change ([2]; Cycle 1, target RH 45.0%, sample RH 44.4%): 1.470%
Desorp Mass Change ([2]; Cycle 1, target RH 45.0%, sample RH 44.9%): 1.573%
Hysteresis ([2]; Cycle 1, target RH 55.0%): 0.123
Sorp Mass Change ([2]; Cycle 1, target RH 55.0%, sample RH 54.3%): 1.811%
Desorp Mass Change ([2]; Cycle 1, target RH 55.0%, sample RH 54.8%): 1.934%
Hysteresis ([2]; Cycle 1, target RH 65.0%): 0.112
Sorp Mass Change ([2]; Cycle 1, target RH 65.0%, sample RH 64.4%): 2.087%
Desorp Mass Change ([2]; Cycle 1, target RH 65.0%, sample RH 64.9%): 2.199%
Hysteresis ([2]; Cycle 1, target RH 75.0%): 0.116
Sorp Mass Change ([2]; Cycle 1, target RH 75.0%, sample RH 74.5%): 2.315%
Desorp Mass Change ([2]; Cycle 1, target RH 75.0%, sample RH 75.1%): 2.431%
Hysteresis ([2]; Cycle 1, target RH 85.0%): 0.096
Sorp Mass Change ([2]; Cycle 1, target RH 85.0%, sample RH 85.1%): 2.559%
Desorp Mass Change ([2]; Cycle 1, target RH 85.0%, sample RH 86.2%): 2.656%
Desorp Mass Change [2, 3]: 2.849%
Sorp Mass Change [2, 3]: 2.849%
water gain consistent with DVS weight gain ([2]; from 6% to 95% RH): 0.9 mol water
weight gain by DVS ([2]; from 6% to 95% RH): 2.8 weight %
Compound: Cc1cc(Nc2ncnn3ccc(C4CCN(C(=O)/C=C/CN(C)C)CC4)c23)ccc1Oc1ccn2ncnc2c1 [Compound 1 Form A, (E)-1-(4-(4-((4-([1,2,4]triazolo[1,5-a]pyridin-7-yloxy)-3-methylphenyl)amino)pyrrolo[2,1-f][1,2,4]triazin-5-yl)piperidin-1-yl)-4-(dimethylamino)but-2-en-1-one]
